Tests used:
[1] = buffer, pH 10
[2] = Dissociation constant, pKa of the compound; assay type: physicochemical

Structure (SMILES) | logS0 [1] | pKa [2]
CC(=O)OCC(=O)[C@@]1(O)CC[C@H]2[C@@H]3CCC4=CC(=O)C=C[C@]4(C)[C@H]3[C@@H](O)C[C@@]21C [PREDNISOLONE ACETATE] | -4.37 | 
CC(=O)N1CCN(c2ccc(OC[C@H]3CO[C@](Cn4ccnc4)(c4ccc(Cl)cc4Cl)O3)cc2)CC1 [KETOCONAZOLE] | -3.8 | 
CN1C(C(=O)Nc2ccccn2)=C(O)c2ccccc2S1(=O)=O [PIROXICAM] | -4.03 | 
CC/C=C(\C)C1(CC)C(=O)NC(=O)NC1=O [VINBARBITAL] | -2.3 | 
O=C(O)c1ccccc1O [SALICYLIC ACID] | -1.8 | 
CCC[S+]([O-])CCCN(CC)CC(O)COc1ccc(C#N)cc1 (stereo not drawn) [ALMOKALANT] | -1.17 | 
CCC1(C2=CCCCC2)C(=O)NC(=O)NC1=O [CYCLOBARBITAL] | -2.12 | 
Cc1ccc2c(c1)C(=O)Nc1cc(N)ccc1O2 | -3.93 | 
COc1cc2c(N)nc(N3CCN(C(=O)OCC(C)(C)O)CC3)nc2c(OC)c1OC [TRIMAZOSIN] | -3.64 | 
CC(=O)OCC(=O)[C@@]1(O)CC[C@H]2[C@@H]3CCC4=CC(=O)CC[C@]4(C)[C@H]3C(=O)C[C@@]21C [CORTISONE ACETATE] | -4.21 | 
CCC1(C2=CCCCCC2)C(=O)NC(=O)NC1=O [HEPTABARBITAL] | -2.91 | 
COc1ccc2[nH]c([S+]([O-])Cc3ncc(C)c(OC)c3C)nc2c1 (stereo not drawn) [OMEPRAZOLE] | -3.4 | 8.9
CCCCC[C@H](O)/C=C/[C@H]1[C@H](O)CC(=O)[C@@H]1CCCCCCC(=O)O [ALPROSTADIL] | -3.67 | 
C=CCC1(C(C)CCC)C(=O)NC(=O)NC1=O (stereo not drawn) [SECOBARBITAL] | -2.36 | 7.8
Nc1ccc(/N=N/c2ccccc2)c(N)n1 [PHENAZOPYRIDINE] | -4.53 | 
COC(=O)[C@H]1[C@@H](OC(=O)c2ccccc2)C[C@@H]2CC[C@H]1N2C [COCAINE] | -2.25 | 
C[C@H]1C[C@H]2[C@@H]3CCC4=CC(=O)C=C[C@]4(C)[C@@]3(F)[C@@H](O)C[C@]2(C)[C@@]1(O)C(=O)CO [BETAMETHASONE] | -3.77 | 
C=CCc1ccccc1OCC(O)CNC(C)C (stereo not drawn) [ALPRENOLOL] | -2.83 | 
CC(C(=O)O)c1ccc(N2Cc3ccccc3C2=O)cc1 (single isomer, unassigned; (+)) [INDOPROFEN] | -4.72 | 4.6
CC(=O)OCC(=O)[C@@]1(O)[C@H](OC(C)=O)C[C@H]2[C@@H]3CCC4=CC(=O)C=C[C@]4(C)[C@@]3(F)[C@@H](O)C[C@@]21C [TRIAMCINOLONE DIACETATE] | -4.31 | 
COc1cc(NC(C)CCCN)c2ncccc2c1 (stereo not drawn) [PRIMAQUINE] | -2.52 | 
C=C(Br)CC1(C(C)CC)C(=O)NC(=O)NC1=O (stereo not drawn) [BUTALLYLONAL] | -2.65 | 
CCCCCC1(CC)C(=O)NC(=O)NC1=O | -2.34 | 
O=C1NC(=O)C(c2ccccc2)(c2ccccc2)N1 [PHENYTOIN] | -4.15 | 
C[C@@H]1C[C@H]2[C@@H]3CCC4=CC(=O)C=C[C@]4(C)[C@@]3(F)[C@@H](O)C[C@]2(C)[C@@]1(O)C(=O)CO [DEXAMETHASONE] | -3.59 | 
CCCCC1(CC=C(C)C)C(=O)NC(=O)NC1=O | -3.55 | 
COC1=CC(=O)C[C@@H](C)[C@]12Oc1c(Cl)c(OC)cc(OC)c1C2=O [GRISEOFULVIN] | -4.83 | 
CCCCn1c(C)nc2c1c(=O)n(C)c(=O)n2C | -1.75 | 

Structure (SMILES) | logS0 [1] | pKa [2]
Cc1ccnc2c1NC(C#N)c1cccnc1N2C1CC1 (stereo not drawn) | -4.74 | 
CC(=O)OCC(=O)[C@@]1(O)CC[C@H]2[C@@H]3CCC4=CC(=O)CC[C@]4(C)[C@H]3[C@@H](O)C[C@@]21C [HYDROCORTISONE ACETATE] | -4.34 | 
C=CCC1(CCCC)C(=O)NC(=O)NC1=O | -2.11 | 
CCCNC(=O)NS(=O)(=O)c1ccc(Cl)cc1 [CHLORPROPAMIDE] | -3.3 | 4.8
CCN(CC)CCOC(=O)c1ccc(N)cc1 [PROCAINE] | -1.78 | 
CCN1c2ccccc2N(C)C(=O)c2cccnc21 | -3.32 | 
O=C(O)c1ccccc1 [BENZOIC ACID] | -1.58 | 
Cc1nnc2n1-c1ccc(Cl)cc1C(c1ccccc1Cl)=NC2 [TRIAZOLAM] | -4.04 | 
COC(=O)c1cc2nc([S+]([O-])Cc3nccc(OC)c3OC)[nH]c2cc1C (stereo not drawn) | -4.41 | 
Cc1ccccc1N1C(=O)c2cc(S(N)(=O)=O)c(Cl)cc2NC1C (stereo not drawn) [METOLAZONE] | -4.33 | 
CN1C(=O)c2cccnc2Oc2ccccc21 | -3.76 | 
NCCN1C(=O)CN=C(c2ccccc2F)c2cc(Cl)ccc21 [DESALKYLFLURAZEPAM] | -3.72 | 11.6
CCOC(=O)c1ccc(N)cc1 [BENZOCAINE] | -2.34 | 
O=C1Nc2ccc(Cl)cc2C(c2ccccc2Cl)=NC1O (stereo not drawn) [LORAZEPAM] | -3.74 | 11.5
C[C@]12C[C@H](O)[C@H]3[C@@H](CCC4=CC(=O)CC[C@@]43C)[C@@H]1CC[C@@H]2C(=O)CO [CORTICOSTERONE] | -3.28 | 
CCN1c2ncccc2C(=O)N(C)c2ccc(Cl)nc21 | -4.11 | 
C=CCOc1ccc(CC(=O)O)cc1Cl [ALCLOFENAC] | -3.13 | 
CC(C)N(CCC(C(N)=O)(c1ccccc1)c1ccccn1)C(C)C (stereo not drawn) [DISOPYRAMIDE] | -2.38 | 10.1
CCOC(=O)c1ccc(O)cc1 [ETHYLPARABEN] | -2.38 | 8.3
CC(C)Nc1cccnc1N1CCN(C(=O)c2cc3cc(NS(C)(=O)=O)ccc3[nH]2)CC1 [DELAVIRDINE] | -5.74 | 
CCCCC[C@H](O)/C=C/[C@H]1[C@H](O)CC(=O)[C@@H]1C/C=C\CCCC(=O)O [DINOPROSTONE] | -2.47 | 
CC(C)NCC(O)COc1cccc2ccccc12 (stereo not drawn) [PROPRANOLOL] | -3.92 | 
CC(CCc1ccccc1)NCC(O)c1ccc(O)c(C(N)=O)c1 (stereo not drawn) [LABETALOL] | -3.41 | 
CCOC(=O)OCn1c([S+]([O-])Cc2nccc(OC)c2OC)nc2cc(C(=O)OC)c(C)cc21 (stereo not drawn) | -5.21 | 
CCC1(C2=CC3CCC(C2)C3)C(=O)NC(=O)NC1=O (stereo not drawn) [REPOSAL] | -2.7 | 
CCN1c2ncccc2C(=O)N(C)c2c(C)cc(OC)nc21 | -2.62 | 
CN1C(=O)c2cccnc2N(C(C)(C)C)c2ncccc21 | -4.85 | 

Reference: ChEMBL document CHEMBL1150239, “Molecular characteristics for solid-state limited solubility” (J Med Chem, 2008)
